Results from EP2813571A1, “Method for the treatment of lung cancer” (Institut d'Investigació Biomèdica de Bellvitge (IDIBELL), priority 2013, dated 2014).

Key:
NCI-H1299 = test: MTT cell viability assay; assay type: cell-based; settings: Homo sapiens, SETDB1 non-amplified cell line NCI-H1299
Method: (§1) • Figure 1. Determination of SETDB1 gene amplification and its association with RNA and protein overexpression in lung cancer cell lines. (A) Assessment of SETDB1 copy number by quantitative genomic PCR. Amplification frequency of SETDB1 (evaluated with SYBR Green) was calculated by the standard curve method using the 7900HT SDS program. To define an internal control gene chromosome 1p36.23 was chosen because it is the least aneuploid region among our cell lines (PEX19 gene). DNA from normal lung was used as the reference standard. Results are reported as n-fold copy number increase relative to the PEX19 gene. […] The internal control gene was ACTB (beta-actin). • Figure 2. Growth-promoting effects of SETDB1 in lung cancer. (A) Stable down-regulation of the SETDB1 gene by short hairpins using two different target sequences for DMS-273 (clones A30/A31 and clone B32-63) and NCI-H1437 (clones A56-B and B46-9). […] Tumor volume was monitored over time and the tumor was excised and weighed at 30 days. […] (A) Effect of SETDB1 on the invasion potential of A549 cells determined by the matrigel invasion assay. […] Invasive cells were counted using ImageJ 1.45s (Wayne Rasband, National Institutes of Health, USA) and the percentage of invasive cells was represented. Results are the mean of at least three experiments by duplicate and the significance was determined using ANOVA-test. *p<0.05. […]

NCI-H1437 = test: MTT cell viability assay; assay type: cell-based; settings: Homo sapiens, SETDB1 amplified cell line NCI-H1437
Method: as §1

A549 = test: MTT cell viability assay; assay type: cell-based; settings: Homo sapiens, SETDB1 non-amplified cell line A549
Source text: (§2) The observation that the presence of the SETDB1 gene amplification with associated overexpression was critical for the tumorigenesis of these lung cancer cells prompted the inventors to examine whether drugs targeting this pathway might find a therapeutic "niche" for their use in the described subset of cases with extra copies of this gene. No highly specific inhibitor for SETDB1 has been described in the publicly available literature, but one agent-mithramycin- is a clinically approved anti-tumor antibiotic that binds to DNA by interacting with the minor groove and displacing transcriptional activators that bind to GC-rich binding sites. Thus, the inventors tested whether a putative growth-inhibitory effect of this drug in lung cancer cells was dependent on SETDB1 expression. First, western blot analyses for the SETDB1 protein in the SETDB1 amplified lung cancer cell lines DMS-273, NCI-H1437 and NCI-H1395 upon the use of the drug were developed. […] Experiments for each clone were performed in triplicate. Furthermore, we extended the cell viability experiments, using the MTT assay, to the other two SETDB1 amplified lung cancer cell lines (NCI-H1437 and NCI-H1395) and to three SETDB1 non-amplified lung cancer cell lines (DMS-114, A549 and NCI-H1299). […] Thus, the presence of SETDB1 gene amplification could "mark" lung cancer cells that are more sensitive to the inhibition of cell viability associated with the use of mithramycin.

DMS-114 = test: MTT cell viability assay; assay type: cell-based; settings: Homo sapiens, SETDB1 non-amplified cell line DMS-114
Source text: as §2

NCI-H1395 = test: MTT cell viability assay; assay type: cell-based; settings: Homo sapiens, SETDB1 amplified cell line NCI-H1395
Source text: as §2

DMS-273 = test: MTT cell viability assay; assay type: cell-based, human; settings: scramble shRNA DMS-273 cells compared with SETDB1-depleted clones; triplicate
Method: as §1

SETDB1 protein = test: Western blot for SETDB1 protein after drug treatment of SETDB1 amplified lung cancer cell lines; assay type: cell-based, human; settings: DMS-273, NCI-H1437 and NCI-H1395
Method: as §1

CL1-5 = settings: Lin and Wang 2007; cited from earlier work
H647 = settings: Lin and Wang 2007; cited from earlier work
CL1-5 cells = settings: Lin and Wang 2007; cited from earlier work

Question: With `CO[C@H](C(=O)[C@@H](O)[C@@H](C)O)[C@@H]1Cc2cc3cc(O[C@H]4C[C@@H](O[C@H]5C[C@@H](O)[C@H](O)[C@@H](C)O5)[C@H](O)[C@@H](C)O4)c(C)c(O)c3c(O)c2C(=O)[C@H]1O[C@H]1C[C@@H](O[C@H]2C[C@@H](O[C@H]3C[C@](C)(O)[C@H](O)[C@@H](C)O3)[C@H](O)[C@@H](C)O2)[C@H](O)[C@@H](C)O1` [mithramycin, (1S)-5-deoxy-1-C-((2S,3S)-7-{[2,6-dideoxy-3-O-(2,6-dideoxy-β-D-arabino-hexopyranosyl)-β-D-arabino-hexopyranosyl]oxy}-3-{[2,6-dideoxy-3-C-methyl-β-D-ribo-hexopyranosyl-(1→3)-2,6-dideoxy-β-D-arabino-hexopyranosyl-(1→3)-2,6-dideoxy-β-D-arabino-hexopyranosyl]oxy}-5,10-dihydroxy-6-methyl-4-oxo-1,2,3,4-tetrahydroanthracen-2-yl)-1-O-methyl-D-xylulose] as the compound, how does the EC50 (NCI-H1299) read?
Answer: 0.032 µM

Question: What about the EC50 (NCI-H1437) of the same compound?
Answer: 0.0136 µM

Question: And the EC50 (A549)?
Answer: 0.122 µM

Question: And the EC50 (DMS-114)?
Answer: 0.348 µM

Question: And the EC50 (NCI-H1395)?
Answer: 0.0147 µM

Question: What about the “sensitivity to the growth-inhibitory effect” value (DMS-273) of the same compound?
Answer: significantly more sensitive

Question: What about the SETDB1 expression (SETDB1 protein) of the same compound?
Answer: inhibit SETDB1 expression

Question: What about the “growth of human lung cancer cell lines” value (CL1-5) of the same compound?
Answer: inhibiting the growth

Question: And the “growth of human lung cancer cell lines” value (H647)?
Answer: inhibiting the growth

Question: And the invasion phenotypes (CL1-5 cells)?
Answer: inhibiting the invasion phenotypes
